Test results published in patent US20230085307A1, “PYRIDAZINONE COMPOUND AND HERBICIDE” (NISSAN CHEMICAL CORPORATION, priority 2019, published 2023).

What was measured:
lambsquarters [1] = test: Test Example 5: herbicidal effect by foliage application, plastic box (Table 20, symbol O); type: in vivo, lambsquarters (Chenopodium album); conditions: amount of applied herbicide 320 g/ha; foliage application after 14-day growth; evaluated three weeks after application
Procedure, shortened: (§1)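 Plants were sown into sterilized diluvial soil under about 1.5 cm cover and kept in a greenhouse at 25° C. to 30° C. Fourteen days on, foliage received an even spray of the diluted emulsion. Herbicidal or crop effect was judged three weeks afterwards.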

chickweed [2] = test: Test Example 4: herbicidal effect by soil treatment (Table 19, symbol P); type: in vivo, common chickweed (Stellaria media); conditions: amount of applied herbicide 320 g/ha
Procedure, shortened: (§2)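 Pre-emergence style soil spray: seeds under ~1.5 cm sterilized diluvial soil received a uniform coat of emulsion diluted to the predetermined herbicide amount. Greenhouse 25–30° C; readout at week three on previously defined criteria.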

windgrass [3] = test: Test Example 5: herbicidal effect by foliage application, plastic box (Table 20, symbol L); type: in vivo, windgrass (Apera spica-venti); conditions: amount of applied herbicide 320 g/ha; foliage application after 14-day growth; evaluated three weeks after application
Procedure, shortened: as §1

Italian ryegrass [4] = test: Test Example 4: herbicidal effect by soil treatment (Table 19, symbol K); type: in vivo, Italian ryegrass (Lolium multiflorum); conditions: amount of applied herbicide 320 g/ha
Procedure, shortened: as §2

southern crabgrass [5] = test: Test Example 5: herbicidal effect by foliage application, plastic box (Table 20, symbol F); type: in vivo, southern crabgrass (Digitaria ciliaris); conditions: amount of applied herbicide 320 g/ha; foliage application after 14-day growth; evaluated three weeks after application
Procedure, shortened: as §1

windgrass [6] = test: Test Example 4: herbicidal effect by soil treatment (Table 19, symbol L); type: in vivo, windgrass (Apera spica-venti); conditions: amount of applied herbicide 320 g/ha
Procedure, shortened: as §2

blackgrass [7] = test: Test Example 4: herbicidal effect by soil treatment (Table 19, symbol J); type: in vivo, blackgrass (Alopecurus myosuroides); conditions: amount of applied herbicide 320 g/ha
Procedure, shortened: as §2

persian speedwell [8] = test: Test Example 5: herbicidal effect by foliage application, plastic box (Table 20, symbol R); type: in vivo, Persian speedwell (Veronica persica); conditions: amount of applied herbicide 320 g/ha; foliage application after 14-day growth; evaluated three weeks after application
Procedure, shortened: as §1

lambsquarters [9] = test: Test Example 4: herbicidal effect by soil treatment (Table 19, symbol O); type: in vivo, lambsquarters (Chenopodium album); conditions: amount of applied herbicide 320 g/ha
Procedure, shortened: as §2

velvetleaf [10] = test: Test Example 5: herbicidal effect by foliage application, plastic box (Table 20, symbol M); type: in vivo, velvetleaf (Abutilon theophrasti); conditions: amount of applied herbicide 320 g/ha; foliage application after 14-day growth; evaluated three weeks after application
Procedure, shortened: as §1

chickweed [11] = test: Test Example 5: herbicidal effect by foliage application, plastic box (Table 20, symbol P); type: in vivo, common chickweed (Stellaria media); conditions: amount of applied herbicide 320 g/ha; foliage application after 14-day growth; evaluated three weeks after application
Procedure, shortened: as §1

barnyard grass [12] = test: Test Example 3: herbicidal effect by foliage application, Wagner pot (Table 18, symbol H); type: in vivo, barnyard grass (Echinochloa crus-galli); conditions: 320 g/ha
Procedure, shortened: (§3)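 Plants were sown in alluvial soil held under 0.1–0.5 cm standing water and grown 14 days in a greenhouse at 25–30 °C. An emulsifiable formulation, water-diluted to the set dose, was then sprayed onto the foliage, and effects were scored three weeks later using previously defined criteria.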

Italian ryegrass [13] = test: Test Example 5: herbicidal effect by foliage application, plastic box (Table 20, symbol K); type: in vivo, Italian ryegrass (Lolium multiflorum); conditions: amount of applied herbicide 320 g/ha; foliage application after 14-day growth; evaluated three weeks after application
Procedure, shortened: as §1

wild oat [14] = test: Test Example 4: herbicidal effect by soil treatment (Table 19, symbol I); type: in vivo, wild oat (Avena fatua); conditions: amount of applied herbicide 320 g/ha
Procedure, shortened: as §2

redroot pigweed [15] = test: Test Example 5: herbicidal effect by foliage application, plastic box (Table 20, symbol N); type: in vivo, redroot pigweed (Amaranthus retroflexus); conditions: amount of applied herbicide 320 g/ha; foliage application after 14-day growth; evaluated three weeks after application
Procedure, shortened: as §1

green foxtail [16] = test: Test Example 5: herbicidal effect by foliage application, plastic box (Table 20, symbol G); type: in vivo, green foxtail (Setaria viridis); conditions: amount of applied herbicide 320 g/ha; foliage application after 14-day growth; evaluated three weeks after application
Procedure, shortened: as §1

velvetleaf [17] = test: Test Example 4: herbicidal effect by soil treatment (Table 19, symbol M); type: in vivo, velvetleaf (Abutilon theophrasti); conditions: amount of applied herbicide 320 g/ha
Procedure, shortened: as §2

redroot pigweed [18] = test: Test Example 4: herbicidal effect by soil treatment (Table 19, symbol N); type: in vivo, redroot pigweed (Amaranthus retroflexus); conditions: amount of applied herbicide 320 g/ha
Procedure, shortened: as §2

barnyard grass [19] = test: Test Example 5: herbicidal effect by foliage application, plastic box (Table 20, symbol H); type: in vivo, barnyard grass (Echinochloa crus-galli); conditions: amount of applied herbicide 320 g/ha; foliage application after 14-day growth; evaluated three weeks after application
Procedure, shortened: as §1

green foxtail [20] = test: Test Example 4: herbicidal effect by soil treatment (Table 19, symbol G); type: in vivo, green foxtail (Setaria viridis); conditions: amount of applied herbicide 320 g/ha
Procedure, shortened: as §2

southern crabgrass [21] = test: Test Example 4: herbicidal effect by soil treatment (Table 19, symbol F); type: in vivo, southern crabgrass (Digitaria ciliaris); conditions: amount of applied herbicide 320 g/ha
Procedure, shortened: as §2

barnyard grass [22] = test: Test Example 4: herbicidal effect by soil treatment (Table 19, symbol H); type: in vivo, barnyard grass (Echinochloa crus-galli); conditions: amount of applied herbicide 320 g/ha
Procedure, shortened: as §2

wild oat [23] = test: Test Example 5: herbicidal effect by foliage application, plastic box (Table 20, symbol I); type: in vivo, wild oat (Avena fatua); conditions: amount of applied herbicide 320 g/ha; foliage application after 14-day growth; evaluated three weeks after application
Procedure, shortened: as §1

Chinese sprangletop = test: Test Example 3: herbicidal effect by foliage application, Wagner pot (Table 18, symbol D); type: in vivo, chinese sprangletop (Leptochloa chinensis); conditions: 320 g/ha
Procedure, shortened: as §3

persian speedwell [24] = test: Test Example 4: herbicidal effect by soil treatment (Table 19, symbol R); type: in vivo, Persian speedwell (Veronica persica); conditions: amount of applied herbicide 320 g/ha
Procedure, shortened: as §2

blackgrass [25] = test: Test Example 5: herbicidal effect by foliage application, plastic box (Table 20, symbol J); type: in vivo, blackgrass (Alopecurus myosuroides); conditions: amount of applied herbicide 320 g/ha; foliage application after 14-day growth; evaluated three weeks after application
Procedure, shortened: as §1

rice flat sedge = test: Test Example 3: herbicidal effect by foliage application, Wagner pot (Table 18, symbol E); type: in vivo, rice flat sedge (Cyperus iria); conditions: 320 g/ha
Procedure, shortened: as §3

Row | SMILES | Herbicidal effect by foliage application, O: lambsquarters (lambsquarters [1]) | P: chickweed, herbicidal effect grade (chickweed [2]) | Herbicidal effect by foliage application, L: windgrass (windgrass [3]) | K: Italian ryegrass, herbicidal effect grade (Italian ryegrass [4]) | Herbicidal effect by foliage application, F: southern crabgrass (southern crabgrass [5]) | L: windgrass, herbicidal effect grade (windgrass [6]) | J: blackgrass, herbicidal effect grade (blackgrass [7]) | Herbicidal effect by foliage application, R: persian speedwell (persian speedwell [8]) | O: lambsquarters, herbicidal effect grade (lambsquarters [9]) | Herbicidal effect by foliage application, M: velvetleaf (velvetleaf [10]) | Herbicidal effect by foliage application, P: chickweed (chickweed [11]) | herbicidal effect on barnyard grass (H) (barnyard grass [12]) | Herbicidal effect by foliage application, K: Italian ryegrass (Italian ryegrass [13]) | I: wild oat, herbicidal effect grade (wild oat [14]) | Herbicidal effect by foliage application, N: redroot pigweed (redroot pigweed [15]) | Herbicidal effect by foliage application, G: green foxtail (green foxtail [16]) | M: velvetleaf, herbicidal effect grade (velvetleaf [17]) | N: redroot pigweed, herbicidal effect grade (redroot pigweed [18]) | Herbicidal effect by foliage application, H: barnyard grass (barnyard grass [19]) | G: green foxtail, herbicidal effect grade (green foxtail [20]) | other results
1 | COc1ccc(-c2sc3cc(F)c(F)cc3c2-c2c(O)c(C)nn(C)c2=O)cc1OC [5-033] | 4 (Herbicidal rate of 70% or more and less than 90%) | 1 (Herbicidal rate of 5% or more and less than 20%) | 0 (Herbicidal rate of 5% or less (almost no effect)) | 0 (Herbicidal rate of 5% or less (almost no effect)) | 1 (Herbicidal rate of 5% or more and less than 20%) | 0 (Herbicidal rate of 5% or less (almost no effect)) | 0 (Herbicidal rate of 5% or less (almost no effect)) | 5 (Herbicidal rate of 90% or more (almost completely withered)) | 4 (Herbicidal rate of 70% or more and less than 90%) | 4 (Herbicidal rate of 70% or more and less than 90%) | 5 (Herbicidal rate of 90% or more (almost completely withered)) | 4 (Herbicidal rate of 70% or more and less than 90%) | 4 (Herbicidal rate of 70% or more and less than 90%) | 0 (Herbicidal rate of 5% or less (almost no effect)) | 3 (Herbicidal rate of 40% or more and less than 70%) | 4 (Herbicidal rate of 70% or more and less than 90%) | 0 (Herbicidal rate of 5% or less (almost no effect)) | 3 (Herbicidal rate of 40% or more and less than 70%) | 3 (Herbicidal rate of 40% or more and less than 70%) | 3 (Herbicidal rate of 40% or more and less than 70%) | F: southern crabgrass, herbicidal effect grade (southern crabgrass [21]): 3 (Herbicidal rate of 40% or more and less than 70%); H: barnyard grass, herbicidal effect grade (barnyard grass [22]): 3 (Herbicidal rate of 40% or more and less than 70%); Herbicidal effect by foliage application, I: wild oat (wild oat [23]): 0 (Herbicidal rate of 5% or less (almost no effect)); herbicidal effect on Chinese sprangletop (D) (Chinese sprangletop): 3 (Herbicidal rate of 40% or more and less than 70%); R: persian speedwell, herbicidal effect grade (persian speedwell [24]): 0 (Herbicidal rate of 5% or less (almost no effect)); Herbicidal effect by foliage application, J: blackgrass (blackgrass [25]): 0 (Herbicidal rate of 5% or less (almost no effect)); herbicidal effect on rice flat sedge (E) (rice flat sedge): 4 (Herbicidal rate of 70% or more and less than 90%)
2 | CCCC(=O)Oc1c(C)nn(C)c(=O)c1-c1c(-c2ccc(F)cc2)sc2cc(Cl)c(Cl)cc12 [5-040] | 3 (Herbicidal rate of 40% or more and less than 70%) | 0 (Herbicidal rate of 5% or less (almost no effect)) | 3 (Herbicidal rate of 40% or more and less than 70%) | 0 (Herbicidal rate of 5% or less (almost no effect)) | 0 (Herbicidal rate of 5% or less (almost no effect)) | 0 (Herbicidal rate of 5% or less (almost no effect)) | 0 (Herbicidal rate of 5% or less (almost no effect)) | 4 (Herbicidal rate of 70% or more and less than 90%) | 0 (Herbicidal rate of 5% or less (almost no effect)) | 1 (Herbicidal rate of 5% or more and less than 20%) | 5 (Herbicidal rate of 90% or more (almost completely withered)) | 4 (Herbicidal rate of 70% or more and less than 90%) | 0 (Herbicidal rate of 5% or less (almost no effect)) | 0 (Herbicidal rate of 5% or less (almost no effect)) | 3 (Herbicidal rate of 40% or more and less than 70%) | 1 (Herbicidal rate of 5% or more and less than 20%) | 2 (Herbicidal rate of 20% or more and less than 40%) | 4 (Herbicidal rate of 70% or more and less than 90%) | 2 (Herbicidal rate of 20% or more and less than 40%) | 3 (Herbicidal rate of 40% or more and less than 70%) | F: southern crabgrass, herbicidal effect grade (southern crabgrass [21]): 0 (Herbicidal rate of 5% or less (almost no effect)); H: barnyard grass, herbicidal effect grade (barnyard grass [22]): 0 (Herbicidal rate of 5% or less (almost no effect)); Herbicidal effect by foliage application, I: wild oat (wild oat [23]): 3 (Herbicidal rate of 40% or more and less than 70%); herbicidal effect on Chinese sprangletop (D) (Chinese sprangletop): 1 (Herbicidal rate of 5% or more and less than 20%); R: persian speedwell, herbicidal effect grade (persian speedwell [24]): 0 (Herbicidal rate of 5% or less (almost no effect)); Herbicidal effect by foliage application, J: blackgrass (blackgrass [25]): 0 (Herbicidal rate of 5% or less (almost no effect)); herbicidal effect on rice flat sedge (E) (rice flat sedge): 0 (Herbicidal rate of 5% or less (almost no effect))
